Row | Compound | melting point
1 | CCCC(c1cccs1)c1c2c(nn1C)N(c1c(C)cc(C)cc1C)CCC2 (stereo not shown) [Compound 4-3, 2-Methyl-3-(1-thiophen-2-ylbutyl)-7-(2,4,6-trimethylphenyl)-4,5,6,7-tetrahydro-2H-pyrazolo[3,4-b]pyridine] | 87.6 to 90.3 °C
2 | CCCC(CCC)c1c2c(nn1C)N(c1c(C)cc(C)cc1C)CCCC2 [Compound 4-4, 2-Methyl-3-(1-propylbutyl)-8-(2,4,6-trimethylphenyl)-2,4,5,6,7,8-hexahydro-1,2,8-triazaazulene] | 96 to 98.1 °C
3 | CCc1c2c(nn1C)N(c1c(C)cc(C)cc1C)CCC2 [Compound 4-5, 3-Ethyl-2-methyl-7-(2,4,6-trimethyl-phenyl)-4,5,6,7-tetrahydro-2H-pyrazolo[3,4-b]pyridine] | 79.7 to 81.4 °C
4 | Cc1cc(C)c(N2CCCc3c2nn(C)c3C(C)C)c(C)c1 [Compound 4-7, 3-Isopropyl-2-methyl-7-(2,4,6-trimethyl-phenyl)-4,5,6,7-tetrahydro-2H-pyrazolo[3,4-b]pyridine] | 105.9 to 108.9 °C
5 | Cc1cc(C)c(N2CCCc3c2nn(C)c3C(=O)O)c(Cl)c1 [Compound 5-1, 7-(2-Chloro-4,6-dimethylphenyl)-2-methyl-4,5,6,7-tetrahydro-2H-pyrazolo[3,4-b]pyridine-3-carboxylic acid] | 247.8 to 248.3 °C
6 | Cc1cc(C)c(N2CCCc3c2nn(C)c3C(=O)O)c(C)c1 [Compound 5-2, 7-(2,4,6-Trimethylphenyl)-2-methyl-4,5,6,7-tetrahydro-2H-pyrazolo[3,4-b]pyridine-3-carboxylic acid] | 228.6 to 233.9 °C
7 | Cc1cc(C)c(N2CCCc3c2nn(C)c3NC(=O)OC(C)(C)C)c(Cl)c1 [Compound 5-3, [7-(2-Chloro-4,6-dimethylphenyl)-2-methyl-4,5,6,7-tetrahydro-2H-pyrazolo[3,4-b]pyridin-3-yl]carbamic acid tert-butyl ester] | 171.4 to 175.7 °C
8 | CCOC(=O)Nc1c2c(nn1C)N(c1c(C)cc(C)cc1Cl)CCC2 [Compound 5-4, [7-(2-Chloro-4,6-dimethylphenyl)-2-methyl-4,5,6,7-tetrahydro-2H-pyrazolo[3,4-b]pyridin-3-yl]carbamic acid ethyl ester] | 204 to 207.8 °C
9 | CCCN(CCC)c1c2c(nn1C)N(c1c(C)cc(C)cc1Cl)CCC2 [Compound 5-5, [7-(2-Chloro-4,6-dimethylphenyl)-2-methyl-4,5,6,7-tetrahydro-2H-pyrazolo[3,4-b]pyridin-3-yl]dipropylamine] | 90 to 91 °C
10 | CCCN(CCC)c1c2c(nn1C)N(c1c(C)cc(C)cc1C)CCC2 [Compound 5-35, [2-Methyl-7-(2,4,6-trimethylphenyl)-4,5,6,7-tetrahydro-2H-pyrazolo[3,4-b]pyridin-3-yl]-dipropylamine] | 88.9 to 91.5 °C
11 | CCC(CC)Nc1c2c(nn1C)N(c1c(C)cc(C)cc1C)CCC2 [Compound 5-36, (1-Ethylpropyl)-[2-methyl-7-(2,4,6-trimethyl-phenyl)-4,5,6,7-tetrahydro-2H-pyrazolo[3,4-b]pyridin-3-yl]-amine] | 99.3 to 104.9 °C
12 | CCC(COC)Nc1c2c(nn1C)N(c1c(C)cc(C)cc1C)CCC2 (stereo not shown) [Compound 5-40, (1-Methoxymethylpropyl)-[2-methyl-7-(2,4,6-trimethylphenyl)-4,5,6,7-tetrahydro-2H-pyrazolo[3,4-b]pyridin-3-yl]-amine] | 96.5 to 102.5 °C
13 | CCCC(COC)Nc1c2c(nn1C)N(c1c(C)cc(C)cc1C)CCC2 (stereo not shown) [Compound 5-41, (1-Methoxymethylbutyl)-[2-methyl-7-(2,4,6-trimethylphenyl)-4,5,6,7-tetrahydro-2H-pyrazolo[3,4-b]pyridin-3-yl]-amine] | 100.1 to 104.4 °C
14 | Cn1nc2c(c1N)CCCN2c1ccc(Cl)cc1Cl [Compound 5-43, 7-(2,4-Dichloro-phenyl)-2-methyl-4,5,6,7-tetrahydro-2H-pyrazolo[3,4-b]pyridin-3-ylamine] | 176.9 to 178.9 °C
15 | Cc1cc(C)c(N2CCCc3c2nn(C)c3N)c(Cl)c1 [Compound 5-45, 7-(2-Chloro-4,6-dimethyl-phenyl)-2-methyl-4,5,6,7-tetrahydro-2H-pyrazolo[3,4-b]pyridin-3-ylamine] | 234 to 236 °C
16 | CCCN(CCCC#N)c1c2c(nn1C)N(c1c(C)cc(C)cc1C)CCC2 [Compound 5-48, 4-{[2-Methyl-7-(2,4,6-trimethyl-phenyl)-4,5,6,7-tetrahydro-2H-pyrazolo [3,4-b]pyridin-3-yl]-propyl-amino}-butyronitrile] | 108.3 to 111 °C
17 | CNc1c2c(nn1C)N(c1c(C)cc(C)cc1C)CCC2 [Compound 5-49, Methyl-[2-methyl-7-(2,4,6-trimethyl-phenyl)-4,5,6,7-tetrahydro-2H-pyrazolo[3,4-b]pyridin-3-yl]-amine] | 143.3 to 144.9 °C
18 | Cc1cc(C)c(N2CCCc3c2nn(C)c3N)c(C)c1 [Compound 5-52, 2-methyl-7-(2,4,6-trimethyl-phenyl)-4,5,6,7-tetrahydro-2H-pyrazolo[3,4-b]pyridin-3-ylamine] | 208.8 to 210.9 °C

Continued, values first:

Row | melting point | Compound
19 | 142.1 to 149.2 °C | Cn1nc2c(c1C(=O)c1ccccn1)CCCN2c1ccc(Cl)cc1Cl [Compound 6-1, [7-(2,4-Dichloro-phenyl)-2-methyl-4,5,6,7-tetrahydro-2H-pyrazolo[3,4-b]pyridin-2-yl]-methanone]
20 | 104.2 to 106.4 °C | CO/N=C(\C)c1c2c(nn1C)N(c1c(C)cc(C)cc1C)CCC2 [Compound 6-4, 1-[2-Methyl-7-(2,4,6-trimethyl-phenyl)-4,5,6,7-tetrahydro-2H-pyrazolo[3,4-b]pyridin-3-yl]-ethanone O-methyl-oxime]
21 | 89 to 90.1 °C | CO/N=C/c1c2c(nn1C)N(c1c(C)cc(C)cc1C)CCC2 [Compound 6-5, 2-Methyl-7-(2,4,6-trimethyl-phenyl)-4,5,6,7-tetrahydro-2H-pyrazolo[3,4-b] pyridine-3-carbaldehyde O-methyl-oxime]
22 | 120.6 to 122 °C | CCCN(CC1CC1)C(=O)c1c2c(nn1C)N(c1c(C)cc(C)cc1Cl)CCC2 [Compound 7-1, 7-(2-Chloro-4,6-dimethylphenyl)-2-methyl-4,5,6,7-tetrahydro-2H-pyrazolo[3,4-b]pyridine-3-carboxylic acidcyclopropylmethylpropyl amide]
23 | 80.3 to 87.7 °C | Cc1cc(C)c(N2CCCc3c2nn(C)c3C(=O)N2CCc3ccccc3C2)c(C)c1 [Compound 7-2, (3,4-Dihydro-1H-isoquinolin-2-yl)-[2-methyl-7-(2,4,6-trimethyl-phenyl)-4,5,6,7-tetrahydro-2H-pyrazolo[3,4-b]pyridin-3-yl]-methanone]
24 | 226 to 228 °C | CCC(=O)Nc1c2c(nn1C)N(c1c(C)cc(C)cc1C)CCC2 [Compound 7-3, N-[2-Methyl-7-(2,4,6-trimethylphenyl)-4,5,6,7-tetrahydro-2H-pyrazolo[3,4-b]pyridin-3-yl]propionamide]
25 | 133.8 to 135 °C | COCC(=O)Nc1c2c(nn1C)N(c1c(C)cc(C)cc1C)CCC2 [Compound 7-4, 2-Methoxy-N-[2-methyl-7-(2,4,6-trimethyl-phenyl)-4,5,6,7-tetrahydro-2H-pyrazolo[3,4-b]pyridin-3-yl]acetamide]
26 | 59 to 63 °C | Cc1cc(C)c(N2CCCc3c2nn(C)c3-c2ccccc2C(F)(F)F)c(C)c1 [Compound 9-1, 2-Methyl-3-(2-trifluoromethyl-phenyl)-7-(2,4,6-trimethyl-phenyl)-4,5,6,7-tetrahydro-2H-pyrazolo[3,4-b]pyridine]
27 | 164.2 to 166.8 °C | Cn1nc2c(c1-c1cncnc1)CCCN2c1ccc(Cl)cc1Cl [Compound 9-2, 7-(2,4-Dichloro-phenyl)-2-methyl-3-pyrimidin-5-yl-4,5,6,7-tetrahydro-2H-pyrazolo[3,4-b]pyridine]
28 | 123.5 to 125.5 °C | Cn1nc2c(c1-c1ccncc1)CCCN2c1ccc(Cl)cc1Cl [Compound 9-3, 7-(2,4-Dichloro-phenyl)-2-methyl-3-pyridin-4-yl-4,5,6,7-tetrahydro-2H-pyrazolo[3,4-b]pyridine]
29 | 256.8 to 258 °C | Cc1cc(C)c(N2C(=O)CCc3c2nn(C)c3Br)c(C)c1 [Compound 9-4, 3-Bromo-2-methyl-7-(2,4,6-trimethyl-phenyl)-2,4,5,7-tetrahydro-pyrazolo[3,4-b]pyridin-6-one]
30 | 103.6 to 104.8 °C | Cc1cc(C)c(N2CCOc3cn(C)nc32)c(C)c1 [Compound 9-5, 2-Methyl-7-(2,4,6-trimethyl-phenyl)-2,5,6,7-tetrahydro-pyrazolo[4,3-b][1,4]oxazine]
31 | 169.9 to 172.8 °C | COc1cccc(OC)c1-c1c2c(nn1C)N(c1c(C)cc(C)cc1C)CCC2 [Compound 9-6, 3-(2,6-Dimethoxy-phenyl)-2-methyl-7-(2,4,6-trimethyl-phenyl)-4,5,6,7-tetrahydro-2H-pyrazolo[3,5-b]pyridine]
